Source: patent publication US20100189648A1, “INHIBITORS FOR DISRUPTING THE INTERACTION OF UBIQUITINATION RELATED ENZYMES AND USES THEREOF” (priority 2006, published 2010)
Converted amounts (≈) assume the structure as drawn. Where two headings read alike, the source gives them in different places.

How the values were obtained:
Format in all cases: cell-based, human
Hela cells = assay: MTT survival assay, cervical cancer line (Hela cells); conditions: for IC50: Homo sapiens
Method: (§1) The effect of the above identified compounds on anti-tumor activity in human carcinoma cells was determined by the MTT survival assay. The MTT assay is a commonly used method in evaluation of cell survival, based on the ability of viable cells to convert MTT (MTT, Sigma, Cat No. 044K5307), a soluble tetrazolium salt [3-(4,5-dimethylthuazole-2-yl)-2,5 diphenyl tetrazolium bromide], into an insoluble formazan precipitate, which is quantitated by spectrophotometry following solubilization in dimethyl sulfoxide (DMSO).
(§2) In brief, different carcinoma cells were treated with negative control, various test articles at different concentration, and positive control (DDP), in 96-well tissue culture dishes. Each test article at different concentration is repeated 3 times.
(§3) Different carcinoma cells were diluted with 10% FBS and RPM1640 or MEM media to a concentration of 3-5×10^4 per ml suspension. 100 microliter of cells were incubated in each well in 96-well tissue culture dishes at 37 C. The cells were incubated at 37 C on the first day. On the second day, media supernatant was removed and replaced with media and different concentration of test articles (100 microliter in each well). Three Negative control wells and three positive control (DDP) wells were also included. The 96-well plate were incubated at 37 C for another 68 hours. After 68 hours, supernatant of each well was removed. 100 microliter of 1 mg/ml MTT diluted in PBS was injected into each well. The cells were incubated at 37 C for another 4 hours. The cells were then solubilized in 150 microliter DMSO, mixed for 10 minutes and absorbance readings were taken using Microplate reader Bio-Rad Model 550 at 570 nm. IR (cell growth inhibition rate) % was calculated as (OD570 of negative control-OD570 with test article)/OD570 of negative control. IC50 (cell 50% inhibition concentration) at 95% confidence level was calculated with Bliss method.

MCF-7 = assay: MTT survival assay, breast cancer cell line (MCF-7); conditions: for IC50: Homo sapiens
Method: as §1, §2, §3

A459 = assay: MTT survival assay, lung cancer cell line (A459); conditions: A459; for IC50: Homo sapiens
Method: as §1, §2, §3

SMMC-7721 = assay: MTT survival assay, liver cancer cell line (SMMC-7721); conditions: SMMC-7721; for IC50: Homo sapiens
Method: as §1, §2, §3

SKOV3 = assay: MTT survival assay, ovarian cancer cell line (SKOV3); conditions: SKOV3 (first table)
Method: as §1, §2, §3

U251 = assay: MTT survival assay, glioma cell line (brain tumor U251); conditions: U251 (first table)
Method: as §1, §2, §3

[1] = 95% confidence limits of IC50, read-out: IC50 (95% confidence level), interval
[2] = Bliss method, unit not printed (concentrations in μg/ml), read-out: IC50 (95% confidence level)

O=C(Nc1ccnc2[nH]ccc12)c1cc2ccccc2s1 [Mol 11]
IR (%) (Hela cells; 0.41 μg/ml): 0.7% | OD(A570 nm) (Hela cells; 0.41 μg/ml): 0.738 ± 0.080 | OD(A570 nm) (Hela cells; 1.23 μg/ml): 0.790 ± 0.037 | IR (%) (Hela cells; 3.70 μg/ml): 2.6% | OD(A570 nm) (Hela cells; 3.70 μg/ml): 0.723 ± 0.032 | IR (%) (Hela cells; 11.11 μg/ml): 12.0% | OD(A570 nm) (Hela cells; 11.11 μg/ml): 0.653 ± 0.134 | IR (%) (Hela cells; 33.33 μg/ml): 61.9% | OD(A570 nm) (Hela cells; 33.33 μg/ml): 0.283 ± 0.047 | IR (%) (Hela cells; 100 μg/ml): 80.5% | OD(A570 nm) (Hela cells; 100 μg/ml): 0.145 ± 0.031 | IC50 (Hela cells; [1]): 26.8 to 38.3 µg/mL (≈ 91.3 to 131 µM) | IC50 (Hela cells; [2]): 31.9 µg/mL (≈ 109 µM) | IR (%) (MCF-7; 3.125 μg/ml): 0% | OD(A570 nm) (MCF-7; 3.125 μg/ml): 0.903 ± 0.194 | IR (%) (MCF-7; 6.25 μg/ml): 21.2% | OD(A570 nm) (MCF-7; 6.25 μg/ml): 0.711 ± 0.045 | IR (%) (MCF-7; 12.5 μg/ml): 16.6% | OD(A570 nm) (MCF-7; 12.5 μg/ml): 0.752 ± 0.164 | IR (%) (MCF-7; 25 μg/ml): 21.9% | OD(A570 nm) (MCF-7; 25 μg/ml): 0.705 ± 0.076 | IR (%) (MCF-7; 50 μg/ml): 45.7% | OD(A570 nm) (MCF-7; 50 μg/ml): 0.490 ± 0.093 | IR (%) (MCF-7; 100 μg/ml): 47.0% | OD(A570 nm) (MCF-7; 100 μg/ml): 0.478 ± 0.079 | IC50 (MCF-7; MCF7, 95% confidence limits of IC50, read-out: IC50 (95% confidence level), interval): 66.9 to 154 µg/mL (≈ 228 to 526 µM) | IC50 (MCF-7; MCF7, Bliss method, unit not printed (concentrations in μg/ml), read-out: IC50 (95% confidence level)): 94.2 µg/mL (≈ 321 µM) | IR (%) (A459; 3.125 μg/ml): 8.6% | OD(A570 nm) (A459; 3.125 μg/ml): 0.583 ± 0.015 | IR (%) (A459; 6.25 μg/ml): 26.1% | OD(A570 nm) (A459; 6.25 μg/ml): 0.471 ± 0.001 | IR (%) (A459; 12.5 μg/ml): 31.2% | OD(A570 nm) (A459; 12.5 μg/ml): 0.438 ± 0.051 | IR (%) (A459; 25 μg/ml): 64.0% | OD(A570 nm) (A459; 25 μg/ml): 0.230 ± 0.040 | IR (%) (A459; 50 μg/ml): 76.1% | OD(A570 nm) (A459; 50 μg/ml): 0.152 ± 0.017 | IR (%) (A459; 100 μg/ml): 83.1% | OD(A570 nm) (A459; 100 μg/ml): 0.108 ± 0.013 | IC50 (A459; [1]): 19.1 to 19.8 µg/mL (≈ 65.2 to 67.4 µM) | IC50 (A459; [2]): 19.4 µg/mL (≈ 66.3 µM) | IC50 (SMMC-7721; [1]): 14.3 to 15.5 µg/mL (≈ 48.9 to 53 µM) | IC50 (SMMC-7721; [2]): 14.9 µg/mL (≈ 50.9 µM) | IR (%) (SMMC-7721; 3.125 μg/ml): 37.0% | OD(A570 nm) (SMMC-7721; 3.125 μg/ml): 0.277 ± 0.018 | IR (%) (SMMC-7721; 6.25 μg/ml): 35.1% | OD(A570 nm) (SMMC-7721; 6.25 μg/ml): 0.286 ± 0.092 | IR (%) (SMMC-7721; 12.5 μg/ml): 53.1% | OD(A570 nm) (SMMC-7721; 12.5 μg/ml): 0.207 ± 0.007 | IR (%) (SMMC-7721; 25 μg/ml): 53.5% | OD(A570 nm) (SMMC-7721; 25 μg/ml): 0.205 ± 0.018 | IR (%) (SMMC-7721; 50 μg/ml): 63.0% | OD(A570 nm) (SMMC-7721; 50 μg/ml): 0.163 ± 0.009 | IR (%) (SMMC-7721; 100 μg/ml): 68.1% | OD(A570 nm) (SMMC-7721; 100 μg/ml): 0.141 ± 0.006 | IC50 (SKOV3; Homo sapiens, SK-OV-3, Bliss method, unit not printed (concentrations in μg/ml), read-out: IC50 (95% confidence level)): 29 µg/mL (≈ 98.9 µM) | IR (%) (SKOV3; 3.125 μg/ml): 0% | OD(A570 nm) (SKOV3; 3.125 μg/ml): 0.753 ± 0.074 | IR (%) (SKOV3; 6.25 μg/ml): 0.9% | OD(A570 nm) (SKOV3; 6.25 μg/ml): 0.694 ± 0.043 | IR (%) (SKOV3; 12.5 μg/ml): 4.1% | OD(A570 nm) (SKOV3; 12.5 μg/ml): 0.671 ± 0.063 | IR (%) (SKOV3; 25 μg/ml): 45.0% | OD(A570 nm) (SKOV3; 25 μg/ml): 0.385 ± 0.017 | IR (%) (SKOV3; 50 μg/ml): 55.1% | OD(A570 nm) (SKOV3; 50 μg/ml): 0.314 ± 0.041 | IR (%) (SKOV3; 100 μg/ml): 86.0% | OD(A570 nm) (SKOV3; 100 μg/ml): 0.098 ± 0.010 | IC50 (U251; Homo sapiens, U-251, Bliss method, unit not printed (concentrations in μg/ml), read-out: IC50 (95% confidence level)): 4340 µg/mL (≈ 14800 µM) | IR (%) (U251; 3.125 μg/ml): 9.1% | OD(A570 nm) (U251; 3.125 μg/ml): 0.797 ± 0.016 | IR (%) (U251; 6.25 μg/ml): 13.5% | OD(A570 nm) (U251; 6.25 μg/ml): 0.758 ± 0.019 | IR (%) (U251; 12.5 μg/ml): 15.1% | OD(A570 nm) (U251; 12.5 μg/ml): 0.744 ± 0.045 | IR (%) (U251; 25 μg/ml): 20.5% | OD(A570 nm) (U251; 25 μg/ml): 0.697 ± 0.053 | IR (%) (U251; 50 μg/ml): 19.1% | OD(A570 nm) (U251; 50 μg/ml): 0.709 ± 0.054 | IR (%) (U251; 100 μg/ml): 25.8% | OD(A570 nm) (U251; 100 μg/ml): 0.650 ± 0.006
